Values quoted from earlier work as cited in patent US20240400534A1, “CHEMICAL TOOLS FOR DRUG TARGET IDENTIFICATION AND CHARACTERIZATION” (Dana-Farber Cancer Institute, Inc., priority 2021, published 2024).

Biological target: USP7 (Homo sapiens, UniProt Q93009)
Conditions: selective covalent inhibitor of the DUB USP7

Sequence of USP7 (Q93009 whole entry): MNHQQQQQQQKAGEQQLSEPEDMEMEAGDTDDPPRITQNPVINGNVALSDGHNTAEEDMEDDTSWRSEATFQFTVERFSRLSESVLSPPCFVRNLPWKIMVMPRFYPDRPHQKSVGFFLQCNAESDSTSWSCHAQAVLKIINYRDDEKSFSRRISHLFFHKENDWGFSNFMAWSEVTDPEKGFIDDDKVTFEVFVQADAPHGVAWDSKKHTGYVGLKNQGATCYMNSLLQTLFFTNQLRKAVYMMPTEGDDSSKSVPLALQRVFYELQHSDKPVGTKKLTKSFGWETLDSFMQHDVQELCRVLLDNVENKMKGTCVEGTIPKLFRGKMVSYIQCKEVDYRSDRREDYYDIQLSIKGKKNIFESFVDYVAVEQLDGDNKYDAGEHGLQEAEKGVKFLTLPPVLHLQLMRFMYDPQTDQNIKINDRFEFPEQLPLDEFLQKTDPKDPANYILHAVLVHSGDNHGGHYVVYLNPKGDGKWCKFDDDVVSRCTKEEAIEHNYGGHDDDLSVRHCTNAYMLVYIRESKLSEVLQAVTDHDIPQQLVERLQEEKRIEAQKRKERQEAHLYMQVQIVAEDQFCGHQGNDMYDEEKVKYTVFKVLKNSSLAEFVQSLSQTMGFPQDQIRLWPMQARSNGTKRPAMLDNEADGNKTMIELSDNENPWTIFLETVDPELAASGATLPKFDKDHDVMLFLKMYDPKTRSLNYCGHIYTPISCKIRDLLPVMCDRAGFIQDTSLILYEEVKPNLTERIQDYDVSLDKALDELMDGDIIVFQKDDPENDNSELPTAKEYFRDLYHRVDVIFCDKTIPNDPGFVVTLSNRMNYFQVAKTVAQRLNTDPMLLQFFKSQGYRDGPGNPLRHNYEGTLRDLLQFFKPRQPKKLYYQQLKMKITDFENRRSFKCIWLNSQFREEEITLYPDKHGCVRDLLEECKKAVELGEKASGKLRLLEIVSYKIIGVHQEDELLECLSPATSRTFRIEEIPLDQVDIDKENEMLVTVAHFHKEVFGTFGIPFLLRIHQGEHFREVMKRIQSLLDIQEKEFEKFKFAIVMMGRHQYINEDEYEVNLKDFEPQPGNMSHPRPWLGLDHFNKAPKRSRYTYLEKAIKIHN

IC50: 0.3 nM
SMILES: CN1CCN(CCC(=O)Nc2ccc3c(=O)n(CC4(O)CCN(C(=O)[C@@H](CCCNC(=O)c5ccc6c(Cl)c7c(nc6c5)CCCC7)Cc5ccccc5)CC4)cnc3c2)CC1 [XL177A]
